Test results from paper PMC12663137 (Nature Communications, 2025).
“And” between values parts separate entries of the source, which are not always exact repeats. Equal entries are not always repeated.

Legend:
[1] = Solubility remark (cryo-EM sample preparation); assay type: physicochemical; settings: concentration could not be increased further
Description: convulsions (Daniels V, Wood M, Leclercq K, Kaminski RM, Gillard M. Modulation of the conformational state of the SV2A protein by an allosteric mechanism as evidenced by ligand binding assays. Br J Pharmacol. 2013 […]
understanding of how USC1244283 modulates the binding of antiseizure drugs to SV2A, the cryo-EM structure of an SV2A-UCB1244283 complex should be determined. […]
allosteric site or also the primary binding site? Are there conformational changes without BRV or UCB-J […]
In our original submission, we mentioned our unsuccessful attempt to determine the structure of the SV2A– […]
These observations are consistent with the allosteric site not being well formed (i.e., very low aƯinity) in unliganded SV2A; orthosteric ligand binding induces the formation of the allosteric site (increased aƯinity).
We have expanded the text to make these points clearer. […]
endogenous substrate is bound to the transporter, or from other oƯ-target eƯects.
- Like reported for BRV in the above-mentioned preprint, UCB1244283 prevents dissociation of UCB-J by blocking the luminal gate. […] I think such […]
experiments are important to obtain further insights into the action of UCB1244283. […]
the orthosteric site and the vesicular lumen. […]
accessing the orthosteric site, and we have included additional discussion in the revision.
(1 picture or pasted object on this page, not shown here)

[2] = target: T1, SV2AEM WT or SV2AEM F188A (Homo sapiens, UniProt Q7L0J3, F188A); assay: Dissociation kinetics of 3H-UCB-J (Fig. 4E); assay type: binding; settings: F188A
T1 construct: expressed in transfected cells; host or cells: HEK293 (ATCC CRL-1573), crude membranes
T1 sequence (Q7L0J3 141-742 F188A): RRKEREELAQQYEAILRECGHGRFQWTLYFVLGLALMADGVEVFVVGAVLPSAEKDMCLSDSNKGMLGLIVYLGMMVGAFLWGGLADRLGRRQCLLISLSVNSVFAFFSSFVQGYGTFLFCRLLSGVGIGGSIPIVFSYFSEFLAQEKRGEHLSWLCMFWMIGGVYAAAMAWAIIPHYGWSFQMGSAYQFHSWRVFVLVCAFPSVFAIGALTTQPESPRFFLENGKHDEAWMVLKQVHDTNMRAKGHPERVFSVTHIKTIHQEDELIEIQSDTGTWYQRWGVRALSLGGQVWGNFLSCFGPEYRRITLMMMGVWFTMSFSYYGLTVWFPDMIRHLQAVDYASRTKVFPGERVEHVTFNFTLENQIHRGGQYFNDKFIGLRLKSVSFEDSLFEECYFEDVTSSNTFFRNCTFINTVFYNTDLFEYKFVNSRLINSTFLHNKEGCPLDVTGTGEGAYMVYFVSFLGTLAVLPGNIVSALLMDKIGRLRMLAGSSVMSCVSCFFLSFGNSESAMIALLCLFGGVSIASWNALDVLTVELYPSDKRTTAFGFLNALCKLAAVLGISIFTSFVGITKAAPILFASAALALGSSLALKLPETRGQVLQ
Experimental: (§1) Ligand binding studies were carried out using crude membranes prepared from HEK293 cells (ATCC, CRL-1573) overexpressing mVenus-SV2AWT or SV2AEM. Membranes were prepared either from transiently transfected cells or from baculovirus-infected cells as described previously. Cells were washed with DPBS (Ca^2+ and Mg^2+ free), followed by resuspending in cold SH buffer (10 mM HEPES-Tris pH 7.4, 320 mM sucrose) containing protease inhibitor cocktail (MedChemExpress) to a density of 10^7 cells/ml. This cell suspension was homogenized by passing through a bead homogenizer (Isobiotec) with 10-micron clearance bead on ice. The lysate was then centrifuged at 4000 × g for 5 min at 4 °C, and the supernatant was aliquoted, frozen in liquid nitrogen, and stored at −80 °C. The mVenus fluorescence estimated using fluorescence size-exclusion chromatography (FSEC) was used to normalize expression levels of mVenus-SV2A mutants studied as detailed previously. For all binding studies, membranes containing […] protein (estimated by BCA method) per reaction were used.
(§2) After 2 h of incubation, ligand dissociation was initiated with 0.3 µM ^1H-UCB-J and radioactivity was monitored at indicated time points by trapping equal volume of membranes on PEI-treated Unifilter-GF/C 96-well filter plates. Dissociation half-life (t1/2) estimates were obtained by fitting the data to one-phase exponential decay using GraphPad Prism 10.

[3] = target: T2, SV2AEM WT or SV2AEM F188A (Homo sapiens, UniProt Q7L0J3); assay: Dissociation kinetics of 3H-UCB-J (Fig. 4E); assay type: binding; settings: WT
T2 construct: expressed in transfected cells; host or cells: HEK293 (ATCC CRL-1573), crude membranes
T2 sequence (Q7L0J3 141-742 F188A): as above
Experimental: as §1, §2

SV2A = target: T3, SV2A (Homo sapiens, UniProt Q7L0J3); assay: Reduction of 3H-padsevonil (50 nM) binding by UCB1244283 (Fig. 5F); settings: for 3H-Padsevonil binding (%): no UCB1244283 = 100%
T3 construct: expressed in transfected cells; host or cells: HEK293 (ATCC CRL-1573), crude membranes
T3 sequence (Q7L0J3 whole entry): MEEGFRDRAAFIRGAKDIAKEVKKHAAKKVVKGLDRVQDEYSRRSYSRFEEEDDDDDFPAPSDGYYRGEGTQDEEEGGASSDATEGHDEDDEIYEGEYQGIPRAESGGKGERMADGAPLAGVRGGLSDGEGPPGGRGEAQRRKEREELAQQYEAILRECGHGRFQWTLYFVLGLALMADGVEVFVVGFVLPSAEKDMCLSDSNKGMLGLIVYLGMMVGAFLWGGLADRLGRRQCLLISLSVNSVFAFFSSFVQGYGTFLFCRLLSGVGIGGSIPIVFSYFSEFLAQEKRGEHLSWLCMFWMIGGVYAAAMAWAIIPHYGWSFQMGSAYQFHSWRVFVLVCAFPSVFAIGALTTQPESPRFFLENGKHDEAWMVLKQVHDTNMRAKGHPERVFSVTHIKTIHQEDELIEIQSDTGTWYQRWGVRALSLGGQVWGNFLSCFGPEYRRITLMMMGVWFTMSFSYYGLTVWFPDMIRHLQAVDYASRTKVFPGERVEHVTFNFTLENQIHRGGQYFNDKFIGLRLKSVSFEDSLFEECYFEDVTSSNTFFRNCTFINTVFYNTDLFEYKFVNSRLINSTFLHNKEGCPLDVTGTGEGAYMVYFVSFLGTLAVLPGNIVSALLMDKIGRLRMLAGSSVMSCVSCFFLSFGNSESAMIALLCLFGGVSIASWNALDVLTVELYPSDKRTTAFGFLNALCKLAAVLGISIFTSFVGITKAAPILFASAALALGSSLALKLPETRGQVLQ
Experimental: Binding observed with SV2AWT was defined as 100%. Data are shown as mean ± s.d.; n = 6 biological replicates. […] Data are shown as mean ± s.d.; n = 6 biological replicates. Significance values were obtained from ordinary one-way ANOVA test (n.s. not significant; **p-value = 0.0064; ****p-value < 0.0001). Source data for (C, F) are provided as a Source data file.
as §1

[4] = tested on: tonic and clonic convulsions; set-up: method as in Daniels et al., Br J Pharmacol. 2013; settings: UCB1244283 alone; ref Daniels et al., Br J Pharmacol. 2013; cited from earlier work
SV2A WT and mutants [5] = target: T4, SV2A WT and mutants (Homo sapiens, UniProt Q7L0J3, M301A); assay: Modulatory effect of 30 µM UCB1244283 on 3H-UCB-J binding, effect of mutations (Fig. 4D); settings: M301A; 30 µM; enhancement in SV2AWT defined as 100%
T4 construct: expressed in transfected cells; host or cells: HEK293 (ATCC CRL-1573), crude membranes
T4 sequence (Q7L0J3 whole entry M301A): as the sequence (Q7L0J3 whole entry) above, with M301A counted along it
Experimental: (§3) Data are shown as mean ± s.d.; n = 6 biological replicates. […] Data are shown as mean ± s.d.; n = 6 biological replicates. […] Residual binding observed at 70 min was defined as 0%. For WT, data are shown as mean ± s.d. […] For the DMSO group, data are shown as mean ± s.d. (n = 4 biological replicates); for the other groups, data are shown as mean (n = 2). Source data for (A, D, E, F) are provided as a Source data file.
as §1
(§4) An equal volume of dimethyl sulfoxide (DMSO) was added to control reactions. Reactions were arrested after 2 h by trapping the membranes on a Unifilter-GF/C 96-well filter plate pre-soaked with 0.1%(w/v) polyethyleneimine. Membranes were washed four times with 0.2 ml of cold binding buffer, dried, and 40 µl of scintillation liquid was added to each well. Radioactivity was monitored in MicroBeta2 plate counter. Residual binding observed in presence of either 10 µM ^1H-UCB-J or 10 µM ^1H-padsevonil was considered as background and subtracted from total binding. Estimates for Kd and Bmax were obtained by fitting the data to one site-specific binding curve using GraphPad Prism 10.

SV2A WT and mutants [6] = assay: as above; set-up: species or system human; settings: Phe188, Tyr461 or Ser601 mutated to alanine
Experimental: as §3, §1, §4

SV2A WT and mutants [7] = target: T5, SV2A WT and mutants (Homo sapiens, UniProt Q7L0J3, L655Q); assay: as above; settings: L655Q
T5 construct: expressed in transfected cells; host or cells: HEK293 (ATCC CRL-1573), crude membranes
T5 sequence (Q7L0J3 whole entry L655Q): as the sequence (Q7L0J3 whole entry) above, with L655Q counted along it
Experimental: as §3, §1, §4

SV2A WT and mutants [8] = target: T6, SV2A WT and mutants (Homo sapiens, UniProt Q7L0J3, L655A); assay: as above; settings: L655A
T6 construct: expressed in transfected cells; host or cells: HEK293 (ATCC CRL-1573), crude membranes
T6 sequence (Q7L0J3 whole entry L655A): as the sequence (Q7L0J3 whole entry) above, with L655A counted along it
Experimental: as §3, §1, §4

COc1ccccc1NC(=O)CC(C)Cc1cc(C)cc(C)c1 (centres unmarked) [UCB1244283]
solubility [1]: poor solubility | 3H-UCB-J Binding (%) ([2]; 30 µM UCB1244283, 0 min): 110.44% and 123.64% | 3H-UCB-J Binding (%) ([2]; 30 µM UCB1244283, 4 min): 30.89% and 37.36% | 3H-UCB-J Binding (%) ([2]; 30 µM UCB1244283, 7 min): 29.68% and 19.59% | 3H-UCB-J Binding (%) ([2]; 30 µM UCB1244283, 8 min): 17.69% and 24.42% | 3H-UCB-J Binding (%) ([2]; 30 µM UCB1244283, 9 min): 11.91% and 16.05% | 3H-UCB-J Binding (%) ([2]; 30 µM UCB1244283, 10 min): 2.24% and 11.65% | 3H-UCB-J Binding (%) ([2]; 30 µM UCB1244283, 15 min): -0.26% and 9.40% | 3H-UCB-J Binding (%) ([2]; 30 µM UCB1244283, 25 min): -3.97% and 3.97% | 3H-UCB-J Binding (%) ([2]; 30 µM UCB1244283, 30 min): -0.60% and 3.19% | 3H-UCB-J Binding (%) ([2]; 30 µM UCB1244283, 40 min): 2.93% and 0.35% | 3H-UCB-J Binding (%) ([2]; 30 µM UCB1244283, 50 min): 6.38% and 7.42% | 3H-UCB-J Binding (%) ([2]; 30 µM UCB1244283, 60 min): 10.53% and 0.69% | 3H-UCB-J Binding (%) ([2]; 30 µM UCB1244283, 70 min): 5.09% and -0.95% | 3H-UCB-J Binding (%) ([3]; 30 µM UCB1244283, 0 min): 159.90% and 202.86% and 206.18% | 3H-UCB-J Binding (%) ([3]; 30 µM UCB1244283, 4 min): 62.83% and 91.12% and 108.82% | 3H-UCB-J Binding (%) ([3]; 30 µM UCB1244283, 5 min): 85.26% and 105.06% and 94.83% | 3H-UCB-J Binding (%) ([3]; 30 µM UCB1244283, 6 min): 84.91% and 66.93% and 87.39% | 3H-UCB-J Binding (%) ([3]; 30 µM UCB1244283, 7 min): 43.33% and 65.94% and 53.85% | 3H-UCB-J Binding (%) ([3]; 30 µM UCB1244283, 8 min): 39.38% and 72.33% and 39.29% | 3H-UCB-J Binding (%) ([3]; 30 µM UCB1244283, 9 min): 42.32% and 69.81% and 52.93% | 3H-UCB-J Binding (%) ([3]; 30 µM UCB1244283, 10 min): 57.05% and 78.11% and 55.34% | 3H-UCB-J Binding (%) ([3]; 30 µM UCB1244283, 20 min): 16.75% and 27.97% and 21.29% | 3H-UCB-J Binding (%) ([3]; 30 µM UCB1244283, 25 min): 30.01% and 19.16% and 35.10% | 3H-UCB-J Binding (%) ([3]; 30 µM UCB1244283, 50 min): 2.00% and 8.63% and 4.06% | 3H-UCB-J Binding (%) ([3]; 30 µM UCB1244283, 60 min): 0.00% | 3H-UCB-J Binding (%) ([3]; 30 µM UCB1244283, 70 min): 13.54% and 8.21% | displacement of padsevonil from SV2A (SV2A): can displace padsevonil from SV2A in a dose-dependent manner | 3H-Padsevonil binding (%) (SV2A; UCB1244283 10 μM): 91.0284% and 102.553% and 101.386% and 86.5062% and 91.3202% | 3H-Padsevonil binding (%) (SV2A; UCB1244283 30 μM): 87.2356% and 88.6944% and 95.6966% and 92.1955% and 71.6265% and 83.5886% | 3H-Padsevonil binding (%) (SV2A; UCB1244283 50 μM): 81.1087% and 81.984% and 86.5062% and 85.6309% and 65.7914% and 73.0853% | 3H-Padsevonil binding (%) (SV2A; UCB1244283 100 μM): 69.7301% and 72.0642% and 78.9205% and 76.5864% and 67.5419% | 3H-Padsevonil binding (%) (SV2A; UCB1244283 500 μM): 70.4595% and 69.4384% and 72.6477% and 70.0219% and 59.2268% and 71.4807% | effect against convulsions [4]: clear protective effect against tonic and clonic convulsions | UCB1244283 modulation (%) (SV2A WT and mutants [5]): 204.26% and 178.72% and 164.89% and 193.57% and 161.39% and 224.53% and 226.42% | allosteric potentiation of 3H-UCB-J binding (SV2A WT and mutants [6]): loss of allosteric potentiation | allosteric modulation of 3H-UCB-J binding (SV2A WT and mutants [7]): abolished allosteric modulation | allosteric modulation of 3H-UCB-J binding (SV2A WT and mutants [8]): did not impair modulation
